Source: the supplement of paper PMC10307832

Legend:
Assay in all cases: relative viability (nuclei count vs DMSO), 5 days (fraction); higher = more cells survive
[1] = compound: O=C(Nc1cc(C(F)(F)F)cc(C(F)(F)F)c1)c1cc(Cl)ccc1O [IMD-0354] + CCNC(=O)c1noc(-c2cc(C(C)C)c(O)cc2O)c1-c1ccc(CN2CCOCC2)cc1 [Luminespib] (partner 0.01 µM)
How it was run: (§1)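 Relative viability is defined as nuclei in treated wells over nuclei in vehicle wells. Duplicate plates were run and medians reported. Lung cancer cell lines in 1536-well plates were dosed by pin tool one day after seeding, with one drug or with a fixed anchor-drug dose plus five library-drug doses (not always all listed) in √10 steps, and nuclei were counted after 5 days.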

[2] = compound: O=C(Nc1cc(C(F)(F)F)cc(C(F)(F)F)c1)c1cc(Cl)ccc1O [IMD-0354] + COc1cc2c(Oc3ccc(NC(=O)C4(C(=O)Nc5ccc(F)cc5)CC4)cc3F)ccnc2cc1OCCCN1CCOCC1 [Foretinib] (partner 0.25 µM)
How it was run: as §1

[3] = compound: O=C(Nc1cc(C(F)(F)F)cc(C(F)(F)F)c1)c1cc(Cl)ccc1O [IMD-0354] + CS(=O)(=O)N1CCN(Cc2cc3nc(-c4cccc5[nH]ncc45)nc(N4CCOCC4)c3s2)CC1 [Pictilisib] (partner 1 µM)
How it was run: as §1

[4] = compound: O=C(Nc1cc(C(F)(F)F)cc(C(F)(F)F)c1)c1cc(Cl)ccc1O [IMD-0354] + C[C@]1(O)C[C@@H](c2nc(-c3ccc4ccc(-c5ccccc5)nc4c3)c3c(N)nccn32)C1 [Linsitinib] (partner 1 µM)
How it was run: as §1

Cell Line: UMC-11
- relative viability ([1]; first compound 0.04 µM): 1.1
- relative viability ([1]; first compound 0.1265 µM): 0.888
- relative viability ([1]; first compound 0.4 µM): 0.434
- relative viability ([1]; first compound 1.265 µM): 0.27
- relative viability ([1]; first compound 4 µM): 0.273
- relative viability ([2]; first compound 0.04 µM): 1.07
- relative viability ([2]; first compound 0.1265 µM): 1.03
- relative viability ([2]; first compound 0.4 µM): 0.431
- relative viability ([2]; first compound 1.265 µM): 0.235
- relative viability ([2]; first compound 4 µM): 0.235
- relative viability ([3]; first compound 0.04 µM): 0.939
- relative viability ([3]; first compound 0.1265 µM): 0.868
- relative viability ([3]; first compound 0.4 µM): 0.542
- relative viability ([3]; first compound 1.265 µM): 0.187
- relative viability ([3]; first compound 4 µM): 0.223
- relative viability ([4]; first compound 0.04 µM): 1.04
- relative viability ([4]; first compound 0.1265 µM): 1.04
- relative viability ([4]; first compound 0.4 µM): 0.559
- relative viability ([4]; first compound 1.265 µM): 0.254
- relative viability ([4]; first compound 4 µM): 0.285
